Experimental findings from patent US8269043B2, “Bicyclic aryl sphingosine 1-phosphate analogs” (Biogen Idec MA Inc., priority 2008, dated 2012) are described below.

The subject of assay [1] is sphingosine kinase 2 (SK2). Description: Sphingosine kinase 2 (SK2) substrate assay with lysate of transfected HEK293E cells, HPLC detection. The format is biochemical, canine, mouse, or human. Particulars: 20 μM test compound, 37° C., 70 minutes, HPLC with and without added SPHK2 (FIG. 7). On the procedure:
To assay a test compound for its properties as a substrate of sphingosine kinase 2 (SK2), an assay using recombinantly expressed SK2 was used. Briefly, HEK293E cells were transiently transfected with plasmids containing DNA encoding a sphingosine kinase 2 (SK2) (canine, mouse, or human). […]
The SK2 kinase assay was performed in a 200 μL reaction mixture containing 20 μm sphingosine (control) or 20 μM test compound (prepared as a 200 μM stock solution containing 0.1% fatty acid-free bovine serum albumin (BSA)), 38 μL lysate, and 2 μM ATP (freshly prepared). Kinase reactions were incubated at 37° C. for 70 minutes followed by detection of phosphorylated compound (control or test compound) using UV absorbance at 282 nm. […] The supernatant was analyzed on HPLC using a C18 column (FIG. 7). The parent and phosphorylated test compound were quantitated using area under the curve (AUC) calculation. […]

The target in a further assay is T1, human S1P1 (Homo sapiens, UniProt P21453).
T1 construct: host or cells: recombinant CHEM cells
T1 sequence (P21453 whole entry): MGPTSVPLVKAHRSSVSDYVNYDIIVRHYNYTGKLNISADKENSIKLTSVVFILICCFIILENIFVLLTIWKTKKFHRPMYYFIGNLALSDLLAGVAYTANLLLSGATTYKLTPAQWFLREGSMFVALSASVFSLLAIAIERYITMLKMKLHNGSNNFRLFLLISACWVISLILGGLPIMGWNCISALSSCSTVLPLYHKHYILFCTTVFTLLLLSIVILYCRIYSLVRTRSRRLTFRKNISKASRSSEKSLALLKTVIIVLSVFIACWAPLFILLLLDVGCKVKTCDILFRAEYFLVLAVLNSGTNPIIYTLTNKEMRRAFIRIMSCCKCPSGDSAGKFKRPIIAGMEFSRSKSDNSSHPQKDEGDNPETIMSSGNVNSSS
As to the kind of experiment: Calcium mobilization assay, agonist activity at human S1P1. In kind it is cell-based. Particulars: recombinant CHEM cells expressing human S1P1, FLIPR Calcium 4 dye (FIG. 8, FIG. 11). On the procedure: (§1) Compounds that were not specific for the S1P, receptor, can have activity for other S1P receptor subtypes, e.g., S1P2, S1P3, S1P4, or S1P5, and can cause undesirable side effects. Accordingly, compounds were tested to identify those that were specific for S1P1 activity and had little or no activity, or are antagonists of, S1P3 activity. Accordingly, the test compounds were tested in a calcium mobilization assay to determine agonist activity at either the human S1P1 or human S1P3 receptor, and antagonist activity only at the human S1P3 receptor. The procedure was essentially as described (with modifications described below) in Davis et al. (2005) Journal of Biological Chemistry, vol. 280, pp. 9833-9841, which is incorporated by reference in its entirety. Calcium mobilization assays were performed in recombinant CHEM cells expressing human S1P1 or S1P3 purchased from Millipore (Billerica, Mass.). To detect free intracellular calcium, S1P1 or S1P3 cells were loaded with FLIPR Calcium 4 dye from Molecular Devices (Sunnyvale, Calif.). Cells were imagined for calcium mobilization using a FLIPR^TETRA equipped with a 96-well dispense head.

Assay [2] addresses T2, human S1P3 receptor (Homo sapiens, UniProt Q99500).
T2 construct: host or cells: recombinant CHEM cells
As to the kind of experiment: Calcium mobilization assay, antagonist activity at human S1P3. Particulars: recombinant CHEM cells expressing human S1P3, FLIPR Calcium 4 dye (FIG. 10, FIG. 11). The format is cell-based. On the procedure:
as §1

Assay [3] has as its target T2, human S1P3 receptor. As to the kind of experiment: Calcium mobilization assay, agonist activity at human S1P3. The format is cell-based. The settings on record: recombinant CHEM cells expressing human S1P3, FLIPR Calcium 4 dye (FIG. 9, FIG. 11). On the procedure:
as §1

T2 sequence (Q99500 whole entry): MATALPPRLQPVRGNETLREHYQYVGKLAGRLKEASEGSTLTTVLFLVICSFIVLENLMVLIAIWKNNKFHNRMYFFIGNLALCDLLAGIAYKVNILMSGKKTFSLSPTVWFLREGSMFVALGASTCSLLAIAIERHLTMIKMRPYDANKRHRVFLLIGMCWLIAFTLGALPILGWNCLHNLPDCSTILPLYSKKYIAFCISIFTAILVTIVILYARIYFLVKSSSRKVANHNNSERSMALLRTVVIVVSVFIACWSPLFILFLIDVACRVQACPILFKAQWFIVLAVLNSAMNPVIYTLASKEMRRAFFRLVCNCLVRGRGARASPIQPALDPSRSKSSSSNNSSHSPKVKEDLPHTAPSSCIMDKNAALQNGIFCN

As to `CCCC[C@H]1CC[C@@H](Oc2ccc3cc([C@@](C)(N)COP(=O)(O)O)ccc3c2C(F)(F)F)CC1` (relative stereo) [Example 21, (R)-2-amino-2-(6-(cis-4-butylcyclohexyloxy)-5-(trifluoromethyl)naphthalen-2-yl)propan-1-phosphoric acid], the “phosphorylation of test compound by SPHK2” value in assay [1] is given as “the compound is phosphorylated under these conditions”. For the same compound, the S1P1 agonist activity entry on human S1P1 is given as “agonists of the S1P, receptor, with potencies similar to S1P”. Moreover, the S1P3 antagonist activity result at human S1P3 receptor [2] is recorded as “do not antagonize the S1P3 receptor”. The S1P3 agonist activity entry on human S1P3 receptor [3] was “weak micromolar partial S1P3 agonist activity”.

As to `C[C@](N)(COP(=O)(O)O)c1ccc2c(C(F)(F)F)c(O[C@H]3CC[C@H](C(F)(F)F)CC3)ccc2c1` [Example 269, Phosphoric acid mono-{(R)-2-amino-2-[5-trifluoromethyl-6-(trans-4-trifluoromethyl-cyclohexyloxy)-naphthalen-2-yl]-propyl}ester], the S1P1 agonist activity result at human S1P1 is given as “S1P, agonists”. The S1P3 antagonist activity entry on human S1P3 receptor [2] is reported as “S1P3 antagonists”. Also, the S1P3 agonist activity result on human S1P3 receptor [3] was “not S1P3 agonists”.
